Experimental data: patent publication US20080119434A1, “Sir2a-based therapeutic and prophylactic methods” (The Trustees of Colubia University, priority 2001, published 2008)
Like-named read-outs stand apart in the source and are kept apart here. Each block holds one molecule with its values, some of them ahead of it. Non-standard residues stand in square brackets, D forms with d. Residues, ends and D or L forms follow the SMILES beside them. Nle = CCCC[C@H](N)C(=O)O

Key:
IMR-90 cells [1] = experiment: DNA damage-induced cell death by adriamycin in IMR-90 cells; assay type: cell-based, human; settings: pBabe-hSIRT1-363Y infected vs mock infected IMR-90 cells, different concentrations of adriamycin, 48 hr
Description: (§2) Both mock infected cells and pBabe-hSIRT1-363Y infected cells were either not treated (I and III) or treated with 50 μM H2O2 (II and IV) (E), or treated with different concentrations of adriamycin as indicated. 48 hr later, the cells were collected for analysis (D).
(§3) IMR-90 cells were infected with either a pBabe retrovirus empty vector or a pBabe retrovirus containing hSIRT1-363Y, and cultured for a week under pharmacological selection.

Sir2α = target: T1, Sir2α (Mus musculus, UniProt Q923E4); experiment: In vitro p53 deacetylation assay with purified Flag-tagged Sir2α; assay type: biochemical; settings: 10 ng Sir2α, 50 μM NAD, 60 min at 30° C.; TSA 500 nM, nicotinamide 5 mM, 3-AB 3 mM
T1 construct: To construct Sir2α expression constructs, the full-length cDNA was subcloned from pET28a-Sir2α; Flag (N); made in house
T1 sequence (Q923E4 1-737): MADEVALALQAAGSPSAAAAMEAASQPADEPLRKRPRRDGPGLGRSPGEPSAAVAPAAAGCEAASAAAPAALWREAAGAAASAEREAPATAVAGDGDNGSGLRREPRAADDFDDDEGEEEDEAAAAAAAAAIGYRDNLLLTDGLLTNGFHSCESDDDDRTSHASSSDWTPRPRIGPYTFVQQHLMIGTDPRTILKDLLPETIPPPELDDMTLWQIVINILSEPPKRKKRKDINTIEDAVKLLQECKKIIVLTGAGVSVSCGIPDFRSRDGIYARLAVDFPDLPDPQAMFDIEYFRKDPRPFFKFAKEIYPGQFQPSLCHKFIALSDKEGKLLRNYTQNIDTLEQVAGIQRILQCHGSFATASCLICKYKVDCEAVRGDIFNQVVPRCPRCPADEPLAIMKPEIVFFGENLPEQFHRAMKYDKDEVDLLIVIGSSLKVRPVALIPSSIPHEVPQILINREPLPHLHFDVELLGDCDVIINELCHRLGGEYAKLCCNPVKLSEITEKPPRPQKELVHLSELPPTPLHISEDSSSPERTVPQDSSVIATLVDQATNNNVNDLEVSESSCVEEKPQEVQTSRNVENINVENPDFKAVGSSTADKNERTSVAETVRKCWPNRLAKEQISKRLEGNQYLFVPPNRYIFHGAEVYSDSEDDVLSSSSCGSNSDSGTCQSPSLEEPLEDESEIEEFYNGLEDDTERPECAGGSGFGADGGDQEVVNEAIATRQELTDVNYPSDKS
Description: FIG. 2. TSA-insensitive deacetylation of p53 by mammalian Sir2α. (A) Colloidal blue staining of a SDS-PAGE gel containing protein Marker (lane 1), a control eluate from M2 loaded with untransfected cell extract (lane 2), and 100 ng of the highly purified Flag-tagged Sir2α recombinant protein (lane 3). (B) Deacetylation of p53 by Sir2α. […] NAD (50 μM) was also added in each reaction except lane 2. The proteins were analyzed by resolution on SDS-PAGE and autoradiography (upper) or Coomassie blue staining (lower). (C) Reduction of the steady-state levels of acetylated p53 by both mouse Sir2α and human SIRT1 expression. Western blot analysis of H1299 cell extracts from the cells cotransfected with p53 and p300 (lane 1), or in combination with Sir2α (lane 2), or in combination with hSIRT1 (lane 4), or Sir2α-355A (lane 3), or hSIRT1-363Y (lane 5), or hSIRT5 (lane 6), or PARP (lane 7) by acetylated p53-specific antibody (upper) or DO-1 for total p53 (lower). The highly conserved histidine residue at the core domain was replaced by alanine for mouse Sir2α (a.a. 355) Sir2α-355A), or replaced by tyrosine for human SIRT1 (a.a. 363) (hSIRT1-363Y). […] The acetylated p53 levels in the cells cotransfected with p53 and p300 (lanes 1, 3), or cotransfected with p53, p300 and Sir2α (lanes 2, 4).
FIG. 3. Abrogation of mammalian Sir2α mediated deacetylation of p53 by nicotinamide. (A) Sir2α-mediated deacetylation of p53 is inhibited by nicotinamide. […] The proteins were analyzed by resolution on SDS-PAGE and autoradiography (upper) or Coomassie blue staining (lower). […]
The Flag-tagged Sir2α cells were established and expanded in DMEM medium, and cell extracts were prepared essentially as previously described (Luo et al., 2000; Gu et al., 1999). […] The eluted proteins were resolved by a SDS-PAGE gel and analyzed by colloidal blue staining (Novex). […] The reactions were resolved on SDS-PAGE and analyzed by Coomassie blue staining and autoradiography.

[2] = test system: acetylated p53 in H460 cells; experiment: Acetylation levels of endogenous p53 in H460 cells during DNA damage response (western blot); assay type: cell-based, human; settings: for acetylation level of p53, agent added to etoposide and TSA: etoposide + TSA + agent vs etoposide + TSA, nicotinamide 5 mM
Description: FIG. 3. […] 2.5 μg of ^14C-labeled acetylated p53 (lane 1) was incubated with 10 ng of purified Sir2α and 50 μM NAD alone (lane 2), or in the presence of either 5 mM of nicotinamide (lane 3) or 3 mM of 3-AB (3-aminobenzamide) (lane 4) for 60 min at 30° C. The proteins were analyzed by resolution on SDS-PAGE and autoradiography (upper) or Coomassie blue staining (lower). […] The cell extracts from untreated cells (lane 1), or treated with ALLN (50 μM) were also included (lane 6).
After treatment, the cells were harvested for western blot analysis. The rabbit polyclonal antibody specific for p300-mediated acetylated p53-[α-p53(Ac)-C] was raised and purified against the acetylated human p53 C-terminal peptide [p53 (Ac)-C: H-S55GQSTSRH55LMF-OH (5=acetylated Lysine)] as described before (Luo et al., 2000). In the case of cotransfection assays testing for p53 acetylation levels, H1299 cells were transfected with 5 μg of CMV-p53 plasmid DNA, 5 μg of CMV-p300 plasmid DNA, and 10 μg of pcDNA3—Sir2α plasmid DNA as indicated. […] The cell extracts were resolved by either 8% or 4-20% SDS-PAGE gels (Novex) and analyzed by western blot with α-p53(Ac)-C and α-p53(DO-1).

[3] = test system: Sir2α-mediated deacetylation of endogenous p53 in MEF p53(+/+) cells; experiment: Sir2α-mediated deacetylation of endogenous p53 in pBabe-Sir2α infected MEF p53(+/+) cells (western blot); assay type: cell-based, mouse; settings: etoposide and TSA in combination with nicotinamide, 6 hr
Description: FIG. 3. Abrogation of mammalian Sir2α mediated deacetylation of p53 by nicotinamide. (A) Sir2α-mediated deacetylation of p53 is inhibited by nicotinamide. 2.5 μg of ^14C-labeled acetylated p53 (lane 1) was incubated with 10 ng of purified Sir2α and 50 μM NAD alone (lane 2), or in the presence of either 5 mM of nicotinamide (lane 3) or 3 mM of 3-AB (3-aminobenzamide) (lane 4) for 60 min at 30° C. The proteins were analyzed by resolution on SDS-PAGE and autoradiography (upper) or Coomassie blue staining (lower). (B) Enhancement of endogenous p53 acetylation levels by nicotinamide. […] (C) The Sir2α-mediated deacetylation of endogenous p53 was abrogated in the presence of nicotinamide. […] The cell extracts from untreated cells (lane 1), or treated with ALLN (50 μM) were also included (lane 6).
Furthermore, we examined the effect of Sir2α expression on endogenous levels of acetylated p53. […] We first examined the protein levels of p53 activation in response to DNA damage in these cells by western blot analysis.
(§1) After treatment, the cells were harvested for western blot analysis. […] The cell extracts were resolved by either 8% or 4-20% SDS-PAGE gels (Novex) and analyzed by western blot with α-p53(Ac)-C and α-p53(DO-1).

[4] = test system: acetylated p53 in H1299 cells; experiment: Acetylated p53 levels in H1299 cells cotransfected with p53 and p300 (western blot); assay type: cell-based, human; settings: H1299 cells cotransfected with p53 and p300, 500 nM TSA vs not treated
Description: FIG. 2. TSA-insensitive deacetylation of p53 by mammalian Sir2α. (A) Colloidal blue staining of a SDS-PAGE gel containing protein Marker (lane 1), a control eluate from M2 loaded with untransfected cell extract (lane 2), and 100 ng of the highly purified Flag-tagged Sir2α recombinant protein (lane 3). (B) Deacetylation of p53 by Sir2α. […] NAD (50 μM) was also added in each reaction except lane 2. The proteins were analyzed by resolution on SDS-PAGE and autoradiography (upper) or Coomassie blue staining (lower). (C) Reduction of the steady-state levels of acetylated p53 by both mouse Sir2α and human SIRT1 expression. Western blot analysis of H1299 cell extracts from the cells cotransfected with p53 and p300 (lane 1), or in combination with Sir2α (lane 2), or in combination with hSIRT1 (lane 4), or Sir2α-355A (lane 3), or hSIRT1-363Y (lane 5), or hSIRT5 (lane 6), or PARP (lane 7) by acetylated p53-specific antibody (upper) or DO-1 for total p53 (lower). The highly conserved histidine residue at the core domain was replaced by alanine for mouse Sir2α (a.a. 355) Sir2α-355A), or replaced by tyrosine for human SIRT1 (a.a. 363) (hSIRT1-363Y). […]
as §1

IMR-90 cells [5] = test system: IMR-90 cells
Description: The cells were analyzed for apoptotic cells (subG1) according to DNA content (PI staining). […] Cells were either not treated (I) or treated with 100 μM H2O2 (II, III, IV) for 24 hr. […] Both mock infected cells and pBabe-Sir2α infected cells were either not treated (I and III) or treated with 200 μM H2O2 (II and IV). 24 hr later, the cells were photographed under a microscope.
as §2
IMR-90 cells were infected with either a pBabe retrovirus empty vector or a pBabe retrovirus containing Sir2α, and cultured for a week under pharmacological selection.
as §3
After one-week selection, the cells were either frozen for stock or immediately used for further analysis.

SMILES: COc1cccc2c1C(=O)c1c(O)c3c(c(O)c1C2=O)C[C@@](O)(C(=O)CO)C[C@@H]3O[C@H]1C[C@H](N)[C@H](O)[C@H](C)O1 [adriamycin]
- sensitivity to DNA damage-induced cell death (IMR-90 cells [1]): much more sensitive

- effect on Sir2α-mediated deacetylation of 14C-labeled acetylated p53 (Sir2α): completely inhibited
SMILES: NC(=O)c1cccnc1 [nicotinamide]
- acetylation level of p53, agent added to etoposide and TSA ([2]; 6 hr): super induction
- cellular levels of acetylated p53 induced by DNA damage ([2]; etoposide plus nicotinamide vs etoposide alone): enhanced
- effect on Sir2α-mediated deacetylation of endogenous p53 [3]: completely abrogated

SMILES: CCCC[C@@H](C=O)NC(=O)[C@H](CC(C)C)NC(=O)[C@H](CC(C)C)NC(C)=O [ALLN] (Ac-Leu-Leu-[Nle]-aldehyde)
- acetylation of p53, single agent vs untreated cells ([2]; 6 hr, etoposide 20 μM, ALLN 50 μM): no significant p53 acetylation was detected

- effect on Sir2α-mediated deacetylation of 14C-labeled acetylated p53 (Sir2α): no apparent effect
SMILES: CC(/C=C/C(=O)NO)=C\[C@@H](C)C(=O)c1ccc(N(C)C)cc1 [TSA, Trichostatin A]
- acetylation level of p53 during DNA damage response, agent added to etoposide ([2]; 6 hr, etoposide plus TSA (0.5 μM) vs etoposide alone): mild enhancement
- steady state level of acetylated p53 [4]: elevated

SMILES: OO [H2O2, hydrogen peroxide]
- cells being killed (IMR-90 cells [5]; mock (pBabe-vector) infected IMR-90 cells, 200 μM H2O2, 24 hr): more than 80%
- susceptibility to H2O2-induced cell death (IMR-90 cells [5]; mock infected IMR-90 cells, 50 μM H2O2): relatively resistant
- cells surviving (IMR-90 cells [5]; pBabe-Sir2α infected IMR-90 cells, 200 μM H2O2, 24 hr): about 70%
- cells surviving (IMR-90 cells [5]; pBabe-hSIRT1-363Y infected IMR-90 cells, 50 μM H2O2): less than 30%

- effect on Sir2α-mediated deacetylation of 14C-labeled acetylated p53 (Sir2α): no significant effect
SMILES: NC(=O)c1cccc(N)c1 [3-AB, 3-aminobenzamide]
- acetylation level of p53, agent added to etoposide and TSA ([2]; 6 hr): no effect
